The values below are quoted from earlier work in patent US20190328656A1, “TARGETED DELIVERY OF PROGESTINS AND ESTROGENS VIA VAGINAL RING DEVICES FOR FERTILITY CONTROL AND HRT PRODUCTS” (Evestra, Inc., priority 2018, published 2019).

The conditions of data set [1]: elimination from the blood stream.
The conditions of data set [2]: compared to estriol.

In the case of `C[C@]12CC[C@@H]3c4ccc(O)cc4CC[C@H]3[C@@H]1CC[C@@H]2O` [17-beta estradiol], the half-life entry in data set [1] was “around 1 hour”.

Take `C[C@]12CC[C@@H]3c4ccc(O)cc4CC[C@H]3[C@@H]1[C@@H](O)[C@@H](O)[C@@H]2O` [Estetrol]: the estrogenic activity entry in data set [2] is recorded as “very weak estrogenic activity”.
